Data on 30 compounds can be found in patent US20240425519A1, “NOVEL SPIROCYCLIC COMPOUNDS AS KLHDC2 LIGANDS” (University of Washington, priority 2021, published 2024).

Read-outs that look alike come from different tables or passages of the source.

In this experiment the target is KLHDC2 (Homo sapiens (Human), UniProt Q9Y2U9). In words: AlphaScreen competition assay for ligand binding to KLHDC2 (GST-KLHDC2 vs biotinylated 12 aa SelK degron peptide). As to conditions: 0.12 nM GST-KLHDC2, 1.7 nM biotinylated 12 aa SelK peptide, triplicate, read-out: KLHDC2 binding activities IC50. The source says:
The following is a description of an assay for evaluating ligand binding to KLHDC2.
Amplified Luminescence Proximity Homogenous Assay (AlphaScreen) was used to monitor protein-protein interaction of two tagged components that are immobilized on beads. One component was GST-KLHDC2 (E3) and the other one was biotinylated-SelK peptide with a length of 12 amino acids (Substrate peptide). When the two components bind, they bring the Alpha beads in close proximity to each other that results in a luminescent signal.
AlphaScreen assays for determining and measuring protein-protein interactions were performed using EnSpire reader (PerkinElmer). GST-tagged KLHDC2 was attached to anti-GST AlphaScreen acceptor beads. Synthetic biotinylated 12 aa SelK degron peptide (Bio-Synthesis, Inc.) was immobilized to streptavidin-coated AlphaScreen donor beads. The donor and acceptor beads were brought into proximity by the interactions between the SelK peptide and KLHDC2. Excitation of the donor beads by a laser beam of 680 nm promotes the formation of singlet oxygen. When an acceptor bead is in close proximity, the singlet oxygen reacts with thioxene derivatives in the acceptor beads and causes the emission of 520-620 nm photons, which are detected as the binding signal. If the beads are not in close proximity to each other, the oxygen will return to its ground state and the acceptor beads will not emit light. Competition assays were performed in the presence of representative binding compounds, which were titrated at various concentrations.
The experiments were conducted with 0.12 nM of GST-KLHDC2 and 1.7 nM biotinylated 12 aa SelK peptide in the presence of 5 μg/ml donor and acceptor beads in a buffer of 25 mM HEPES, pH 7.5, 100 mM NaCl, 1 mM TCEP, 0.1% Tween-20, and 0.05 mg/ml Bovine Serum Albumin. The concentrations of the compounds used in competition assays ranged from 0.1 nM to 25 mM. The experiments were done in triplicate. IC50 values were determined using non-linear curve fitting of the dose response curves generated with Prism 4 (GraphPad).
For orientation: Alpha assays give light when donor and acceptor beads are brought close together.

Sequence of KLHDC2 (Q9Y2U9 whole entry): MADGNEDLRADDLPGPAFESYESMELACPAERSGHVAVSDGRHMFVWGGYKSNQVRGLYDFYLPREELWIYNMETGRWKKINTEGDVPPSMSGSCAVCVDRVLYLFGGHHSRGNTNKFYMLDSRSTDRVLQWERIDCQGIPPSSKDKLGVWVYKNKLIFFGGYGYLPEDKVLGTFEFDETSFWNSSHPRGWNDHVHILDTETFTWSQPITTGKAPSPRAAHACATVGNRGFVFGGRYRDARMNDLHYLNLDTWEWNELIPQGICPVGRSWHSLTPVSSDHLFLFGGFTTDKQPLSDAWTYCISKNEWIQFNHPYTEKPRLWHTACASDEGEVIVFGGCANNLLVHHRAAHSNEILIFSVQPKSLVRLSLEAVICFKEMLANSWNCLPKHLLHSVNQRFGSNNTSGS

Turning to `CC(C(=O)N1CCCC2(CCN(CC(=O)O)C(=O)CO2)C1)c1ccccc1` (stereo not drawn) [AC890, 2-(9-oxo-2-(2-phenylpropano-yl)-7-oxa-2,10-diazaspiro[5.6]-dodecan-10-yl)acetic acid], the IC50 (in general, the point on the concentration scale where inhibition reaches its midpoint) (formula (IV) compounds) is 50 µM. On the same count and under the same terms, the same measure for `O=C(O)CN1CCC2(CCCN(C(=O)C3CCCC3)C2)OCC1=O` (stereo not drawn) [AC903, 2-(2-(cyclopentanecarbonyl)-9-oxo-7-oxa-2,10-diazaspiro-[5.6]dodecan-10-yl)acetic acid]: 40.1 µM. Turning to `O=C(O)CN1CCC2(CCCN(C(=O)C3CCC3)C2)OCC1=O` (stereo not drawn) [AC904, 2-(2-(cyclobutanecarbonyl)-9-oxo-7-oxa-2,10-diazaspiro-[5.6]dodecan-10-yl)acetic acid], the IC50 (formula (IV) compounds) turned out to be 51 µM. The same measure, in the same setting: the same measure for `O=C(O)CN1CCC2(CCCN(c3ccnc(N4CCC(O)C4)n3)C2)OCC1=O` (stereo not drawn) [AC935, 2-(2-(2-(3-hydroxypyrrolidin-1-yl)pyrimidin-4-yl)-9-oxo-7-oxa-2,10-diazaspiro[5.6]-dodecan-10-yl)acetic acid]: 47.5 µM.

Consider `Cc1nccc(N2CCCC3(CCN(CC(=O)O)C(=O)CO3)C2)n1` (stereo not drawn) [AC947, 2-(2-(2-methylpyrimidin-4-yl)-9-oxo-7-oxa-2,10-diazaspiro-[5.6]dodecan-10-yl)acetic acid], for which the IC50 (formula (IV) compounds) amounted to 1390 µM. Regarding `C[C@H](C(=O)N1CCC[C@]2(CCN(CC(=O)O)C(=O)CO2)C1)c1ccccc1` [AC0978, 2-((S)-9-oxo-2-((S)-2-phenyl-propanoyl)-7-oxa-2,10-diaza-spiro[5.6]dodecan-10-yl)acetic acid], the IC50 (formula (IV) compounds) stood at 22.1 µM.

As to `C[C@H](C(=O)N1CCC[C@@]2(CCN(CC(=O)O)C(=O)CO2)C1)c1ccccc1` [AC0979, 2-((R)-9-oxo-2-((S)-2-phenyl-propanoyl)-7-oxa-2,10-diaza-spiro[5.6]dodecan-10-yl)acetic acid], the IC50 (formula (IV) compounds) was 63.7 µM. Still for that read-out and setting: the value for `C[C@@H](C(=O)N1CCCC2(CCN(CC(=O)O)C(=O)CO2)C1)c1ccccc1` (stereo partly drawn) [AC1028, 2-(9-oxo-2-((R)-2-phenylpro-panoyl)-7-oxa-2,10-diaza-spiro[5.6]dodecan-10-yl)acetic acid] was 39.6 µM. For the compound `CC(=O)N1CCc2nc(N3CCN(C)C4(CCC(=O)N(CC(=O)O)CC4)C3)ncc2C1` (stereo not drawn) [AC1030, 2-(4-(6-acetyl-5,6,7,8-tetra-hydropyrido[4,3-d]pyrimidin-2-yl)-1-methyl-10-oxo-1,4,9-triazaspiro[5.6]dodecan-9-yl)-acetic acid], the IC50 (formula (III) compounds) amounted to 445 µM. Same read-out and setting: the same measure for `Cc1nc(N)nc(N2CCN(C)C3(CCC(=O)N(CC(=O)O)CC3)C2)c1Cl` (stereo not drawn) [AC1031, 2-(4-(2-amino-5-chloro-6-methylpyrimidin-4-yl)-1-methyl-10-oxo-1,4,9-triaza-spiro[5.6]dodecan-9-yl)acetic acid]: 389 µM. Take `CN1CCN(C(=O)C2CC2c2ccccc2)CC12CCC(=O)N(CC(=O)O)CC2` (stereo not drawn) [AC1032, 2-(1-methyl-10-oxo-4-(2-phenylcyclopropane-1-carbonyl)-1,4,9-triaza-spiro[5.6]dodecan-9-yl)-acetic acid]: where the note is “formula (II) compounds”, the IC50 stood at 32 µM.

As to `CC(Cc1ccccc1)C(=O)N1CCN(C)C2(CCC(=O)N(CC(=O)O)CC2)C1` (stereo not drawn) [AC1033, 2-(1-methyl-4-(2-methyl-3-phenylpropanoyl)-10-oxo-1,4,9-triazaspiro[5.6]-dodecan-9-yl)acetic acid], the half-maximal inhibitory concentration (IC50) (formula (II) compounds) amounted to 56.4 µM.

Turning to `CN1CCN(C(=O)C2CC(F)(F)C2)CC12CCC(=O)N(CC(=O)O)CC2` (stereo not drawn) [AC1034, 2-(4-(3,3-difluorocyclo-butane-1-carbonyl)-1-methyl-10-oxo-1,4,9-triazaspiro[5.6]dodecan-9-yl)acetic acid], the 50% inhibitory concentration (IC50) (formula (II) compounds) came out at 295 µM. On to `CN1CCN(c2nccc(C(=O)O)n2)CC12CCC(=O)N(CC(=O)O)CC2` (stereo not drawn) [AC1035, 2-(9-(carboxymethyl)-1-meth-yl-10-oxo-1,4,9-triazaspiro-[5.6]dodecan-4-yl)pyrimidine-4-carboxylic acid], for which, for the setting “formula (III) compounds”, the IC50 was 123 µM. As to `CN1CCN(C(=O)C2(c3ccc(F)cc3)CC2)CC12CCC(=O)N(CC(=O)O)CC2` (stereo not drawn) [AC1045, 2-(4-(1-(4-fluorophenyl)-cyclopropane-1-carbon-yl)-1-methyl-10-oxo-1,4,9-triazaspiro[5.6]-dodecan-9-yl)acetic acid], the IC50 (formula (II) compounds) came to 348 µM.

`CN1CCN(C(=O)C(C)(C)Oc2ccccc2)CC12CCC(=O)N(CC(=O)O)CC2` (stereo not drawn) [AC1046, 2-(1-methyl-4-(2-methyl-2-phenoxypropanoyl)-10-oxo-1,4,9-triazaspiro[5.6]-dodecan-9-yl)acetic acid]: the IC50 (formula (II) compounds) turned out to be 202 µM. The same measure, in the same setting: the same measure for `CN1CCN(C(=O)[C@H]2C[C@@H](NC(=O)OC(C)(C)C)C2)CC12CCC(=O)N(CC(=O)O)CC2` (stereo partly drawn) [AC1047, 2-(4-((1,3-trans)-3-((tert-butoxycarbonyl)amino)-cyclobutane-1-carbonyl)-1-methyl-10-oxo-1,4,9-triazaspiro[5.6]dodecan-9-yl)acetic acid]: 493 µM. Still for that read-out and setting: the value for `CN1CCN(C(=O)C2(O)CCCC2)CC12CCC(=O)N(CC(=O)O)CC2` (stereo not drawn) [AC1048, 2-(4-(1-hydroxycyclopen-tane-1-carbonyl)-1-meth-yl-10-oxo-1,4,9-triaza-spiro[5.6]dodecan-9-yl)-acetic acid] was 116 µM; that for `CN1CCN(C(=O)NC2CCC2)CC12CCC(=O)N(CC(=O)O)CC2` (stereo not drawn) [AC1049, 2-(4-(cyclobutylcarbam-oyl)-1-methyl-10-oxo-1,4,9-triazaspiro[5.6]-dodecan-9-yl)acetic acid] was 91.7 µM; that for `CN1CCN(C(=O)Nc2ccccc2)CC12CCC(=O)N(CC(=O)O)CC2` (stereo not drawn) [AC1050, 2-(1-methyl-10-oxo-4-(phenylcarbamoyl)-1,4,9-triazaspiro[5.6]dodecan-9-yl)acetic acid] was 33.6 µM. As to `CN1CCN(C(=O)NCc2ccccc2)CC12CCC(=O)N(CC(=O)O)CC2` (stereo not drawn) [AC1051, 2-(4-(benzylcarbamoyl)-1-methyl-10-oxo-1,4,9-triazaspiro[5.6]dodecan-9-yl)acetic acid], for the setting “formula (II) compounds”, the half-maximal inhibitory concentration (IC50) came to 45.9 µM. For the compound `CN1CCN(C(=O)C2CC2)CC12CCC(=O)N(CC(=O)O)CC2` (stereo not drawn) [AC1052, 2-(4-(cyclopropanecar-bonyl)-1-methyl-10-oxo-1,4,9-triazaspiro[5.6]-dodecan-9-yl)acetic acid], for the setting “formula (II) compounds”, the IC50 is 100 µM. On the same count and under the same terms, the value for `CC(C(=O)N1CCN(C)C2(CCC(=O)N(CC(=O)O)CC2)C1)c1ccc(O)cc1` (stereo not drawn) [AC1062, 2-(4-(2-(4-hydroxyphen-yl)propanoyl)-1-methyl-10-oxo-1,4,9-triazaspiro-[5.6]dodecan-9-yl)acetic acid] was 19.8 µM. The same measure, in the same setting: the value for `COC(C)(C(=O)N1CCN(C)C2(CCC(=O)N(CC(=O)O)CC2)C1)c1ccccc1` (stereo not drawn) [AC1063, 2-(4-(2-methoxy-2-phen-ylpropanoyl)-1-methyl-10-oxo-1,4,9-triazaspiro-[5.6]dodecan-9-yl)acetic acid] was 131 µM. On the same count and under the same terms, the value for `CN1CCN(C(=O)c2cnn(-c3ccccc3)c2)CC12CCC(=O)N(CC(=O)O)CC2` (stereo not drawn) [AC1064, 2-(1-methyl-10-oxo-4-(1-phenyl-1H-pyrazole-4-carbonyl)-1,4,9-triaza-spiro[5.6]dodecan-9-yl)-acetic acid] was 148 µM. Take `CN1CCN(C(=O)[C@@H]2CCN2C(=O)OC(C)(C)C)CC12CCC(=O)N(CC(=O)O)CC2` (stereo partly drawn) [AC1065, 2-(4-((S)-1-(tert-butoxy-carbonyl)azetidine-2-carbonyl)-1-methyl-10-oxo-1,4,9-triazaspiro[5.6]-dodecan-9-yl)acetic acid]: the IC50 (formula (II) compounds) was 496 µM.

Regarding `CN1CCN(C(=O)C2CC(=O)N(Cc3ccccc3)C2)CC12CCC(=O)N(CC(=O)O)CC2` (stereo not drawn) [AC1066, 2-(4-(1-benzyl-5-oxo-pyrrolidine-3-carbonyl)-1-methyl-10-oxo-1,4,9-triazaspiro[5.6]dodecan-9-yl)acetic acid], the IC50 (formula (II) compounds) is 65.9 µM. On the same count and under the same terms, the value for `CC(=O)N1CCC(C(=O)N2CCN(C)C3(CCC(=O)N(CC(=O)O)CC3)C2)CC1` (stereo not drawn) [AC1068, 2-(4-(1-acetylpiperidine-4-carbonyl)-1-methyl-10-oxo-1,4,9-triazaspiro-[5.6]dodecan-9-yl)acetic acid] was 191 µM. The same measure, in the same setting: the same measure for `CN1CCN(C(=O)C2CN(Cc3ccccn3)C2)CC12CCC(=O)N(CC(=O)O)CC2` (stereo not drawn) [AC1069, 2-(1-methyl-10-oxo-4-(1-(pyridin-2-ylmethyl)azeti-dine-3-carbonyl)-1,4,9-triazaspiro[5.6]dodecan-9-yl)acetic acid]: 4.6 µM; for `CN1CCN(C(=O)[C@H]2CCCN2C(=O)c2ccccc2)CC12CCC(=O)N(CC(=O)O)CC2` (stereo partly drawn) [AC1071, 2-(4-(benzoyl-D-prolyl)-1-methyl-10-oxo-1,4,9-triazaspiro[5.6]dodecan-9-yl)acetic acid]: 45.4 µM.
